Measured values reported in ChEMBL document CHEMBL1201862, “PubChem BioAssay data set” (2004).
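Method: 48-hour compound exposure of cells in 96-well plates, five concentrations, linear interpolation of endpoints. GI50: concentration for 50% inhibition of growth.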 Calls of active or inactive are those of the source. No stated cut-off is given here; in the data, active = GI50 up to about 1.1 µM and inactive = higher. Non-standard residues stand in square brackets, D forms with d. Residues, ends and D or L forms follow the SMILES beside them. ξ: configuration not given here. *: point of attachment. NMeY = CN[C@@H](Cc1ccc(O)cc1)C(=O)O; Cbz = O=C(OCc1ccccc1)*; ξA = CC(N)C(=O)O

How the values were obtained:
Experiment in all cases: DTP human tumour cell line panel, 48 h
SF-268 = system: SF-268
SR = system: SR
U-251 = system: U-251
OVCAR-5 = system: OVCAR-5
UACC-257 = system: UACC-257
MCF7 = system: MCF7
NCI-H522 = system: NCI-H522
TK-10 = system: TK-10
RPMI-8226 = system: RPMI-8226
SK-OV-3 = system: SK-OV-3
SK-MEL-5 = system: SK-MEL-5
DU-145 = system: DU-145
IGROV-1 = system: IGROV-1
MDA-MB-435 = system: MDA-MB-435
EKVX = system: EKVX
NCI-H226 = system: NCI-H226
T47D = system: T47D
OVCAR-4 = system: OVCAR-4
KM12 = system: KM12

Row | Structure (SMILES) | GI50 (SF-268) | GI50 (SR) | GI50 (U-251) | GI50 (OVCAR-5) | GI50 (UACC-257) | GI50 (MCF7) | GI50 (NCI-H522) | GI50 (TK-10) | GI50 (RPMI-8226) | GI50 (SK-OV-3) | GI50 (SK-MEL-5) | GI50 (DU-145) | GI50 (IGROV-1) | GI50 (MDA-MB-435) | GI50 (EKVX) | GI50 (NCI-H226) | GI50 (T47D) | GI50 (OVCAR-4) | GI50 (KM12)
1 | O=C(O)CSCC(=O)c1ccccc1 | > 100 µM (inactive) | > 100 µM (inactive) | > 100 µM (inactive) | > 100 µM (inactive) | > 100 µM (inactive) | > 100 µM (inactive) | > 100 µM (inactive) | > 100 µM (inactive) | > 100 µM (inactive) | > 100 µM (inactive) | > 100 µM (inactive) | > 100 µM (inactive) | > 100 µM (inactive) | > 100 µM (inactive) | > 100 µM (inactive) | > 100 µM (inactive) | > 100 µM (inactive) | > 100 µM (inactive) | > 100 µM (inactive)
2 | Cc1cn([C@H]2C[C@@H](N3C(=O)c4ccccc4C3=O)[C@@H](CO[Si](C)(C)C(C)(C)C)O2)c(=O)[nH]c1=O | 30.6 µM (inactive) | 36.7 µM (inactive) | 34.9 µM (inactive) | > 100 µM (inactive) | > 100 µM (inactive) | 46 µM (inactive) | 50.4 µM (inactive) | > 100 µM (inactive) | > 100 µM (inactive) | 30.1 µM (inactive) | > 100 µM (inactive) | > 100 µM (inactive) | 55 µM (inactive) | > 100 µM (inactive) | 75.2 µM (inactive) | 57.1 µM (inactive) | > 100 µM (inactive) | > 100 µM (inactive) | 91.6 µM (inactive)
3 | O=c1ssc2c1Nc1c(ssc1=O)S2 | 16.2 µM (inactive) | 1.96 µM (inactive) | 16.4 µM (inactive) | 17 µM (inactive) | 14.6 µM (inactive) | 16.4 µM (inactive) | 8.28 µM (inactive) | 16 µM (inactive) | 5.04 µM (inactive) | 19.5 µM (inactive) | 15.7 µM (inactive) | 13.4 µM (inactive) | 13.2 µM (inactive) | 18.5 µM (inactive) | 15.4 µM (inactive) | 23.4 µM (inactive) | 10.7 µM (inactive) | 14.4 µM (inactive) | 14.4 µM (inactive)
4 | COc1ccc(C[C@@H](C(=O)NCC(N)=O)N(C)C(=O)[C@@H]2CCCN2C(=O)[C@H](CC(C)C)NC(=O)C(C)NC(=O)OCc2ccccc2)cc1 (stereo partly specified) (Cbz-[ξA]LP[NMeY](Me)G-NH2) | > 100 µM (inactive) | > 100 µM (inactive) | > 100 µM (inactive) | > 100 µM (inactive) | > 100 µM (inactive) | > 100 µM (inactive) | > 100 µM (inactive) | > 100 µM (inactive) | > 100 µM (inactive) | > 100 µM (inactive) | > 100 µM (inactive) | > 100 µM (inactive) | > 100 µM (inactive) | > 100 µM (inactive) | > 100 µM (inactive) | > 100 µM (inactive) | > 100 µM (inactive) | > 100 µM (inactive) | > 100 µM (inactive)
5 | COc1ccc(C2SCC(=O)N2NC(=O)C(C)Oc2ccc(Cl)cc2Cl)cc1 (stereo unspecified) | > 100 µM (inactive) | < 0.01 µM (active) | 33.7 µM (inactive) | > 100 µM (inactive) | 42.4 µM (inactive) | 32.1 µM (inactive) | 91.2 µM (inactive) | 42.6 µM (inactive) | 30.7 µM (inactive) | 49.2 µM (inactive) | 46.5 µM (inactive) | 53 µM (inactive) | 37 µM (inactive) | 76.7 µM (inactive) | 60 µM (inactive) | 16.4 µM (inactive) | 28.4 µM (inactive) | 23.6 µM (inactive) | 55.1 µM (inactive)
6 | O=Cc1cccc2c1Oc1c(cccc1C(=O)O)S2 | 48.3 µM (inactive) | < 0.01 µM (active) | 62.7 µM (inactive) | > 100 µM (inactive) | > 100 µM (inactive) | 89.3 µM (inactive) | 81.5 µM (inactive) | > 100 µM (inactive) | 25.7 µM (inactive) | 61.8 µM (inactive) | 67.1 µM (inactive) | 56.1 µM (inactive) | > 100 µM (inactive) | > 100 µM (inactive) | 70.1 µM (inactive) | > 100 µM (inactive) | 83 µM (inactive) | 98.4 µM (inactive) | 13.7 µM (inactive)
7 | CCCCCCCCCCCCCCCCCCNc1ccn(C2OC(CO)C(OP(=O)(O)OCC(COP(=O)(O)OCC3OC(n4cc(F)c(NCCCCCCCCCCCCCCCCCC)nc4=O)CC3O)OC(=O)CCCCCCCCCCCCCCC)C2O)c(=O)n1 (stereo unspecified) | > 100 µM (inactive) | > 100 µM (inactive) | > 100 µM (inactive) | > 100 µM (inactive) | > 100 µM (inactive) | > 100 µM (inactive) | > 100 µM (inactive) | > 100 µM (inactive) | > 100 µM (inactive) | > 100 µM (inactive) | > 100 µM (inactive) | > 100 µM (inactive) | > 100 µM (inactive) | > 100 µM (inactive) | > 100 µM (inactive) | > 100 µM (inactive) | > 100 µM (inactive) | > 100 µM (inactive) | > 100 µM (inactive)
8 | COc1ccc(NC(/C(C(=O)c2ccccc2)=C(\O)C(=O)/C=C(\O)c2ccccc2)c2ccc(OC)cc2)cc1 (stereo unspecified) | 43.1 µM (inactive) | 31.6 µM (inactive) | 38.9 µM (inactive) | > 100 µM (inactive) | 40.7 µM (inactive) | 39.5 µM (inactive) | 15.2 µM (inactive) | 30.3 µM (inactive) | 24.2 µM (inactive) | 39.3 µM (inactive) | 49.3 µM (inactive) | 41.6 µM (inactive) | 35 µM (inactive) | 20.6 µM (inactive) | 18.7 µM (inactive) | > 100 µM (inactive) | 24.5 µM (inactive) | 30.5 µM (inactive) | 30.9 µM (inactive)
9 | OC(c1cccs1)c1cc2ccccc2s1 (stereo unspecified) | > 10 µM (inactive) | > 10 µM (inactive) | > 10 µM (inactive) | > 10 µM (inactive) | > 10 µM (inactive) | > 10 µM (inactive) | > 10 µM (inactive) | > 10 µM (inactive) | > 10 µM (inactive) | > 10 µM (inactive) | > 10 µM (inactive) | > 10 µM (inactive) | > 10 µM (inactive) | > 10 µM (inactive) | > 10 µM (inactive) | > 10 µM (inactive) | > 10 µM (inactive) | > 10 µM (inactive) | > 10 µM (inactive)
10 | CC(=O)C(=Cc1ccc(C=C(C(C)=O)C(C)=O)cc1)C(C)=O | 1.41 µM (inactive) | 0.238 µM (active) | 1.79 µM (inactive) | 2.79 µM (inactive) | 1.92 µM (inactive) | 1.87 µM (inactive) | 1.37 µM (inactive) | 2.22 µM (inactive) | 0.282 µM (active) | 6.07 µM (inactive) | 1.9 µM (inactive) | 3.81 µM (inactive) | 2.02 µM (inactive) | 1.63 µM (inactive) | 5.31 µM (inactive) | 3.23 µM (inactive) | 3.05 µM (inactive) | 1.9 µM (inactive) | 0.12 µM (active)
11 | Cc1cccc2c1CC1(Cc3ccccc3C1=O)C2=O (stereo unspecified) | 87.1 µM (inactive) | > 100 µM (inactive) | > 100 µM (inactive) | > 100 µM (inactive) | > 100 µM (inactive) | > 100 µM (inactive) | > 100 µM (inactive) | > 100 µM (inactive) | > 100 µM (inactive) | 37.6 µM (inactive) | > 100 µM (inactive) | > 100 µM (inactive) | > 100 µM (inactive) | > 100 µM (inactive) | > 100 µM (inactive) | > 100 µM (inactive) | > 100 µM (inactive) | > 100 µM (inactive) | > 100 µM (inactive)
12 | CC(C)OC(=S)Nc1ccc(Cl)c(/C=N/OC(C)(C)C)c1 | 19.3 µM (inactive) | 20.4 µM (inactive) | 17.1 µM (inactive) | 16 µM (inactive) | 18.2 µM (inactive) | 22.9 µM (inactive) | 15.7 µM (inactive) | 12.4 µM (inactive) | 18.1 µM (inactive) | 19.8 µM (inactive) | 16.2 µM (inactive) | 13 µM (inactive) | 17.5 µM (inactive) | 18 µM (inactive) | 15.4 µM (inactive) | 17.9 µM (inactive) | 15.7 µM (inactive) | 18.1 µM (inactive) | 12.5 µM (inactive)
13 | S=C1CSc2c(ccc3ccccc23)N1 | > 100 µM (inactive) | > 100 µM (inactive) | > 100 µM (inactive) | > 100 µM (inactive) | > 100 µM (inactive) | > 100 µM (inactive) | > 100 µM (inactive) | > 100 µM (inactive) | > 100 µM (inactive) | > 100 µM (inactive) | > 100 µM (inactive) | > 100 µM (inactive) | > 100 µM (inactive) | > 100 µM (inactive) | 21.7 µM (inactive) | > 100 µM (inactive) | > 100 µM (inactive) | > 100 µM (inactive) | > 100 µM (inactive)
14 | CC(C)(C)OC(=O)N1CC(CCl)c2ccc(O)cc21 (stereo unspecified) | 1.58 µM (inactive) | 1.45 µM (inactive) | 3.15 µM (inactive) | 3.27 µM (inactive) | 2.01 µM (inactive) | 0.753 µM (active) | 0.612 µM (active) | 2.4 µM (inactive) | 1.75 µM (inactive) | 5.05 µM (inactive) | 1.35 µM (inactive) | 0.589 µM (active) | 3.84 µM (inactive) | 1.99 µM (inactive) | 2.75 µM (inactive) | 2.06 µM (inactive) | 3.03 µM (inactive) | 0.267 µM (active) | 2.1 µM (inactive)
